Reference: publication PMC6590626 (OncoTargets and therapy, 2019)

Biological target: T1, IKKβ (Homo sapiens, UniProt O14920)
T1 sequence (O14920 1-756): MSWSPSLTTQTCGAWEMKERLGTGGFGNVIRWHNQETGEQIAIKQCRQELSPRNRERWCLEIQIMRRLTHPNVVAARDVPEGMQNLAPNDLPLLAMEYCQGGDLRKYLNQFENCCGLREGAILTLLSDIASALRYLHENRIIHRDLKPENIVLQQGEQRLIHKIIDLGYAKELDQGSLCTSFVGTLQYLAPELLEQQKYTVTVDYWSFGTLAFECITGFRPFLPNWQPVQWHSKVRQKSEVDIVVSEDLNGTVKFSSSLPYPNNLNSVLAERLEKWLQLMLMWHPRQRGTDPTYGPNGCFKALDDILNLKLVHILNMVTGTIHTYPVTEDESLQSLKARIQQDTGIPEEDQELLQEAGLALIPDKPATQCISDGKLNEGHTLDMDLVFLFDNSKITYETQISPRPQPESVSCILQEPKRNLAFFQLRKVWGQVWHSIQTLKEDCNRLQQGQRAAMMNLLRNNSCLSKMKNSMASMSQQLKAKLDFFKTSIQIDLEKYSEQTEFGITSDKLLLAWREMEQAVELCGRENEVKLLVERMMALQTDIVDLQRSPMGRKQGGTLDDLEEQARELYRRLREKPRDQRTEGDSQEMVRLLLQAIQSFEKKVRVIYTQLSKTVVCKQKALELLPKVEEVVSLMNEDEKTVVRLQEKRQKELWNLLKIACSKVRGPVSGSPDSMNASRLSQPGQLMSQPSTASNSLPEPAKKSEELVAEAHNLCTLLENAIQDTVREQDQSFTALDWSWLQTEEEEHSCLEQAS
Assay: SPR
Format: binding

Kd: 32 µM
Structure (SMILES): CC(C)C1=CC2=CC[C@@H]3[C@](C)(CCC[C@@]3(C)C(=O)O)[C@H]2CC1 [AA, Abietic acid]
